Source: patent publication US12532884B2, “Fungicidal compositions” (SYNGENTA CROP PROTECTION AG, priority 2020, dated 2026)

Assays:
[1] = test system: Mycosphaerella arachidis syn. Cercospora arachidicola; experiment: Example C1: mixtures against Mycosphaerella arachidis syn. Cercospora arachidicola (brown leaf spot), liquid culture; assay type: cell-based; conditions: single component, 100-0 scale (100=no disease growth)
Excerpt: (§1) Certain mixture compositions comprising a compound of formula (I) described above may show a synergistic effect. This occurs whenever the action of an active ingredient combination is greater than the sum of the actions of the individual components. The action to be expected E for a given active ingredient combination obeys the so-called COLBY formula and can be calculated as follows (COLBY, S. R. “Calculating synergistic and antagonistic responses of herbicide combination”. Weeds, Vol. 15, pages 20-22; 1967): • ppm=milligrams of active ingredient (=a.i.) per liter of spray mixture • X=% action by active ingredient A) using p ppm of active ingredient • Y=% action by active ingredient B) using q ppm of active ingredient.
(§2) According to COLBY, the expected (additive) action of active ingredients A)+B) using p+q ppm of active ingredient is:
(§3) If the action actually observed (O) is greater than the expected action (E), then the action of the combination is super-additive, i.e. there is a synergistic effect. In mathematical terms, synergism corresponds to a positive value for the difference of (O-E). In the case of purely complementary addition of activities (expected activity), said difference (O-E) is zero. A negative value of said difference (O-E) signals a loss of activity compared to the expected activity.
(§4) Mycelia fragments or conidia suspensions of a fungus prepared either freshly from liquid cultures of the fungus or from cryogenic storage, are directly mixed into nutrient broth. DMSO solutions of the test compound (max. 10 mg/mL) are diluted with 0.025% Tween20 by a factor of 50 and 10 μl of this solution is pipetted into a microtiter plate (96-well format). The nutrient broth containing the fungal spores/mycelia fragments is then added to give an end concentration of the tested compound. The test plates are incubated in the dark at 24° C. and 96% relative humidity. The inhibition of fungal growth is determined photometrically after 2 to 7 days, depending on the pathosystem, and percent antifungal activity relative to the untreated check is calculated.
(§5) Conidia of the fungus from cryogenic storage were directly mixed into nutrient broth (PDB potato dextrose broth). A DMSO solution of the test compounds was placed into a microtiter plate (96-well format) and the nutrient broth containing the fungal spores was added to it.
The following mixture compositions at the reported concentration (in ppm) in tables C1-3 and C1-4 gave the following disease control in this test Mycosphaerella arachidis syn. Cercospora arachidicola (Brown leaf spot of peanut). Fungicidal activity was evaluated on a 100-0 scale (100=no disease growth; 0=well completely covered by mycelium).

Septoria glycines = experiment: Example C3: mixtures against Septoria glycines (brown spot), liquid culture; assay type: cell-based; conditions: single component; for inhibition at 0.1 ppm / inhibition at 0.3 ppm: read-out: Activity (%)
Excerpt: This occurs whenever the action of an active ingredient combination is greater than the sum of the actions of the individual components. The action to be expected E for a given active ingredient combination obeys the so-called COLBY formula and can be calculated as follows (COLBY, S. R. “Calculating synergistic and antagonistic responses of herbicide combination”. Weeds, Vol. 15, pages 20-22; 1967): • ppm=milligrams of active ingredient (=a.i.) per liter of spray mixture • X=% action by active ingredient A) using p ppm of active ingredient • Y=% action by active ingredient B) using q ppm of active ingredient.
as §2, §3
as §4, with “The nutrient broth containing the fungal spores/mycelia fragments is then added to give an end concentration of the tested compound.” left out
as §5, with “fungus harvested” for “fungus”, “a fresh culture grown on artificial media,” for “cryogenic storage”
Fungicidal activity was evaluated on a 100-0 scale (100=no disease growth; 0=well completely covered by mycelium).

[2] = test system: Glomerella lagenarium syn. Colletotrichum lagenarium; experiment: Example C4: mixtures against Glomerella lagenarium syn. Colletotrichum lagenarium (anthracnose), liquid culture; assay type: cell-based; conditions: single component; for inhibition at 0.3 ppm / inhibition at 0.1 ppm: Colletotrichum orbiculare
Excerpt: as §1, §2, §3, §4, §5
The following mixture compositions at the reported concentration (in ppm) in tables C4-3 and C4-4 gave the following disease control in this test (Glomerella lagenarium syn. Colletotrichum lagenarium). Fungicidal activity was evaluated on a 100-0 scale (100=no disease growth; 0=well completely covered by mycelium).

Phakopsora pachyrhizi = experiment: Example D: preventative activity against Phakopsora pachyrhizi on soybean (whole plants sprayed, leaf disks inoculated); assay type: in vivo; conditions: applied alone; for inhibition at 450 g/ha / inhibition at 900 g/ha: Phakopsora pachyrhizi, foliar, read-out: Observed Activity (% of untreated)
Excerpt: as §1, §2, §3
Whole soybean plants are treated with the recited active ingredients 4 weeks after planting. 1 day after spraying leaf disks are cut from the first trifoliate leaf. Five repetitions at each rate are conducted. The leaf disks are inoculated with Phakopsora pachyrhizi (Asian soybean rust) one day after treatment. Evaluation of the leaf disks is conducted 11 to 14 days after inoculation and the activity is derived from the relation of the treated vs untreated, infested check. (100=no disease, no damage to the leaf, 0=high infestation, leaf damaged heavily). The rates of the active ingredients used are given in the tables as g active ingredient (a.i.)/ha.

Septoria tritici = experiment: Example C2: mixtures against Septoria tritici (leaf blotch), liquid culture; assay type: cell-based; conditions: single component; for inhibition at 0.3 ppm: read-out: Activity (%)
Excerpt: as §1, §2, §3, §4, §5
The following mixture compositions at the reported concentration (in ppm) in tables C2-3 to C2-5 gave the following disease control in this test Septoria tritici (leaf blotch). Fungicidal activity was evaluated on a 100-0 scale (100=no disease growth; 0=well completely covered by mycelium).

Corynespora cassiicola = experiment: Example C5: mixtures against Corynespora cassiicola (target leaf spot), liquid culture; assay type: cell-based; conditions: Corynespora cassiicola, single component
Excerpt: as §1, §2, §3, §4
as §5, with “it. The test plates were incubated at 24 C and the inhibition of growth was determined photometrically after 3-4 days at 620 nm.” for “it.”
The following mixture compositions at the reported concentration (in ppm) in tables C4-3 and C4-4 gave the following disease control in this test (Corynespora cassiicola). Fungicidal activity was evaluated on a 100-0 scale (100=no disease growth; 0=well completely covered by mycelium).

[3] = test system: Puccinia recondita (Brown rust); experiment: Example B: comparative biological activity against Puccinia recondita (brown rust), curative, wheat leaf segments; assay type: in vivo; conditions: 8 dpi
Experimental: Method; Wheat leaf segments are placed on agar in multiwell plates (24-well format). The leaf segments are inoculated with a spore suspension of the fungus and sprayed with test solutions 1 day after inoculation. After appropriate incubation the activity of a compound is assessed 8 dpi (days after inoculation) as curative fungicidal activity.
The data are presented as the percentage of disease control of each compound for the biological tests and testing rates described below in table B1.

[4] = 0.1 ppm, 100-0 scale (100=no disease growth)
[5] = 0.3 ppm, 100-0 scale (100=no disease growth)
[6] = Zymoseptoria tritici, 0.3 ppm, 100-0 scale
[7] = Septoria glycines, 0.1 ppm, 100-0 scale (100=no disease growth)
[8] = Septoria glycines, 0.3 ppm, 100-0 scale (100=no disease growth)

Compound: mancozeb [reference compound]
- Activity (%) ([1]; 0.1 ppm): 0%
- Activity (%) ([1]; 0.3 ppm): 0%
- Activity (%) (Septoria glycines; [4]): 0%
- Activity (%) (Septoria glycines; [5]): 0%
- Activity (%) ([2]; 0.1 ppm): 0%
- Activity (%) ([2]; 0.3 ppm): 20%
- Observed Activity (% of untreated) (Phakopsora pachyrhizi; 225 g/ha): 27%
- Observed Activity (% of untreated) (Phakopsora pachyrhizi; 450 g/ha): 39%

Compound: COc1ccnc(C(=O)N[C@H]2COC(=O)[C@H](Cc3ccccc3)[C@@H](OC(=O)C(C)C)[C@H](C)OC2=O)c1OCOC(=O)C(C)C [fenpicoxamid]
- Activity (%) ([2]; 0.1 ppm): 20%
- Activity (%) ([2]; 0.3 ppm): 70%

Compound: CCC(=O)Oc1c(OC)ccnc1C(=O)N[C@@H](C)C(=O)O[C@@H](C)[C@@H](C)c1ccccc1C [[(1S,2S)-1-methyl-2-(o-tolyl)propyl] (2S)-2-[(4-methoxy-3-propanoyloxy-pyridine-2-carbonyl)amino]propanoate, reference compound]
- inhibition at 0.03 ppm ([1]; Mycosphaerella arachidis, 0.03 ppm): 70%
- inhibition at 0.03 ppm (Septoria tritici; Zymoseptoria tritici, 0.03 ppm, 100-0 scale): 50%
- inhibition at 0.06 ppm (Septoria tritici; Zymoseptoria tritici, 0.06 ppm, 100-0 scale): 70%
- inhibition at 0.03 ppm (Septoria glycines; Septoria glycines, 0.03 ppm): 0%
- inhibition at 0.06 ppm (Septoria glycines; Septoria glycines, 0.06 ppm): 0%
- inhibition at 0.03 ppm (Corynespora cassiicola; 0.03 ppm): 0%
- inhibition at 0.06 ppm (Corynespora cassiicola; 0.06 ppm): 0%

Compound: Cn1cc(C(=O)Nc2cccc3c2[C@@H]2CC[C@H]3C2=C(Cl)Cl)c(C(F)F)n1 (racemic) [benzovindiflupyr]
- Activity (%) (Septoria tritici; [4]): 50%
- Activity (%) (Septoria tritici; 0.3 ppm, 100-0 scale): 70%
- Activity (%) (Septoria glycines; 0.1 ppm): 70%
- Activity (%) (Septoria glycines; [4]): 70%
- Activity (%) ([2]; 0.1 ppm): 50%

Compound: Cc1ccc(C(=O)OCc2ccc(Oc3ccccc3)cc2)c(N)n1 [aminopyrifen]
- Activity (%) ([2]; 0.1 ppm): 20%
- Activity (%) ([2]; 0.3 ppm): 50%

Compound: CO/C=C(\Oc1cc(C#CC2CCCCC2)ccc1C)C(=O)OC [Reference Compound Z-1, reference compound]
- control (%) ([3]; 20 ppm): 0%
- control (%) ([3]; 60 ppm): 0%
- control (%) ([3]; 200 ppm): 0%

Compound: CC(O)(Cn1cncn1)c1ccc(Oc2ccc(Br)cc2)nc1C(F)(F)F (stereo not shown) [2-[6-(4-bromophenoxy)-2-(trifluoromethyl)-3-pyridyl]-1-(1,2,4-triazol-1-yl)propan-2-ol]
- inhibition at 0.3 ppm ([2]; 0.3 ppm): 0%

Compound: CC(O)(Cn1cncn1)c1ccc(Oc2ccc(Cl)cc2)cc1C(F)(F)F (stereo not shown) [mefentrifluconazole]
- Activity (%) ([2]; 0.3 ppm): 0%

Compound: O=C(Nc1ccccc1F)c1ccc(-c2noc(C(F)(F)F)n2)cc1 [N-(2-fluorophenyl)-4-[5-(trifluoromethyl)-1,2,4-oxadiazol-3-yl]benzamide]
- inhibition at 10 ppm (Septoria tritici; Zymoseptoria tritici, 10 ppm, 100-0 scale): 0%
- inhibition at 20 ppm (Septoria tritici; Zymoseptoria tritici, 20 ppm, 100-0 scale): 0%
- inhibition at 10 ppm (Corynespora cassiicola; 10 ppm): 0%
- inhibition at 20 ppm (Corynespora cassiicola; 20 ppm): 0%

Compound: Cc1nc2c(F)c(F)ccc2cc1Oc1cccc(F)c1C(C)(C)O [ipflufenoquin, reference compound]
- Activity (%) ([1]; 0.3 ppm): 0%
- Activity (%) (Septoria tritici; [4]): 20%
- Activity (%) (Septoria tritici; 0.3 ppm, 100-0 scale): 20%
- Activity (%) (Septoria glycines; 0.1 ppm): 0%
- Activity (%) (Septoria glycines; [4]): 0%
- Activity (%) (Septoria glycines; 0.3 ppm): 20%
- Activity (%) (Septoria glycines; [5]): 20%
- Activity (%) ([2]; 0.1 ppm): 50%

Compound: O=C1c2ccccc2C(=O)N1SC(Cl)(Cl)Cl [folpet, reference compound]
- inhibition at 0.3 ppm ([1]; Mycosphaerella arachidis, 0.3 ppm): 20%
- inhibition at 0.3 ppm (Septoria tritici; [6]): 20%
- inhibition at 0.1 ppm (Septoria glycines; [7]): 0%
- inhibition at 0.3 ppm (Septoria glycines; [8]): 0%
- inhibition at 0.1 ppm ([2]; 0.1 ppm): 20%
- inhibition at 0.3 ppm ([2]; 0.3 ppm): 70%
- inhibition at 450 g/ha (Phakopsora pachyrhizi; 450 g/ha): 4%
- inhibition at 900 g/ha (Phakopsora pachyrhizi): 13%

Compound: OC(Cc1ccccc1Cl)(Cn1nc[nH]c1=S)C1(Cl)CC1 (stereo not shown) [prothioconazole]
- inhibition at 0.1 ppm ([2]; 0.1 ppm): 20%
- inhibition at 0.3 ppm ([2]; 0.3 ppm): 70%

Compound: CO/C=C(\Oc1cccc(C(C)(C)C)c1)C(=O)OC [Reference Compound Z-2, reference compound]
- control (%) ([3]; 20 ppm): 0%
- control (%) ([3]; 60 ppm): 0%
- control (%) ([3]; 200 ppm): 0%

Compound: N#Cc1c(Cl)c(Cl)c(Cl)c(C#N)c1Cl [chlorothalonil, reference compound]
- inhibition at 0.1 ppm ([1]; Mycosphaerella arachidis, 0.1 ppm): 20%
- inhibition at 0.1 ppm (Septoria tritici; Zymoseptoria tritici, 0.1 ppm, 100-0 scale (100=no disease growth)): 20%
- inhibition at 0.3 ppm (Septoria tritici; [6]): 50%
- inhibition at 0.1 ppm (Septoria glycines; [7]): 0%
- inhibition at 0.3 ppm (Septoria glycines; [8]): 20%
- inhibition at 450 g/ha (Phakopsora pachyrhizi; 450 g/ha): 8%
- inhibition at 900 g/ha (Phakopsora pachyrhizi): 7%
